System: meniscal release model of osteoarthritis
Test: Meniscal release model of osteoarthritis in dogs (Example 8)
Format: in vivo
Details: 5 mg/kg daily
Procedure: Twenty intact adult female hounds underwent surgical meniscal release of the right stifle and were maintained for at least 8 weeks to allow osteoarthritis to develop. […] Animals were randomized into three groups: negative control (n=6), positive control (n=7) treated with 5 mg/kg firocoxib daily, and grapiprant (n=7) dosed once daily at 30 mg/kg. Dosing was based on baseline bodyweight.
Baseline physical exams, bodyweights, hematology, serum chemistry and urinalysis were obtained on study Day −1 and repeated on Day 13. Orthopedic assessments were conducted on Day −1, Day 2, Day 6, and Day 13, including a kinetics assessment using the GAITRite system to determine left hindlimb: right hindlimb ratios for peak pressure, stride length, step length, and stance time, a 5-point scale lameness evaluation, VAS assessments of right hindlimb function, right stifle pain and effusion, and comfortable range of motion measurements of both stifles using a goniometer.

CC1(C)OC(=O)C(OCC2CC2)=C1c1ccc(S(C)(=O)=O)cc1 [firocoxib, reference compound]
peak pressure ratios, lameness and function scores compared to baseline: improved statistically significant mean peak pressure ratios on Day 13 and in mean lameness and mean function scores on Day 6 and 13 compared to baseline
